Data on five compounds can be found in PMC5478869, “New Hydroxycinnamic Acid Esters as Novel 5-Lipoxygenase Inhibitors That Affect Leukotriene Biosynthesis” (Mediators of Inflammation, 2017).

Entries after “also recorded” stand apart in the source; their conditions may differ.

Assay [1] addresses T1, 5-LO (Homo sapiens, UniProt P09917).
T1 sequence (P09917 1-674): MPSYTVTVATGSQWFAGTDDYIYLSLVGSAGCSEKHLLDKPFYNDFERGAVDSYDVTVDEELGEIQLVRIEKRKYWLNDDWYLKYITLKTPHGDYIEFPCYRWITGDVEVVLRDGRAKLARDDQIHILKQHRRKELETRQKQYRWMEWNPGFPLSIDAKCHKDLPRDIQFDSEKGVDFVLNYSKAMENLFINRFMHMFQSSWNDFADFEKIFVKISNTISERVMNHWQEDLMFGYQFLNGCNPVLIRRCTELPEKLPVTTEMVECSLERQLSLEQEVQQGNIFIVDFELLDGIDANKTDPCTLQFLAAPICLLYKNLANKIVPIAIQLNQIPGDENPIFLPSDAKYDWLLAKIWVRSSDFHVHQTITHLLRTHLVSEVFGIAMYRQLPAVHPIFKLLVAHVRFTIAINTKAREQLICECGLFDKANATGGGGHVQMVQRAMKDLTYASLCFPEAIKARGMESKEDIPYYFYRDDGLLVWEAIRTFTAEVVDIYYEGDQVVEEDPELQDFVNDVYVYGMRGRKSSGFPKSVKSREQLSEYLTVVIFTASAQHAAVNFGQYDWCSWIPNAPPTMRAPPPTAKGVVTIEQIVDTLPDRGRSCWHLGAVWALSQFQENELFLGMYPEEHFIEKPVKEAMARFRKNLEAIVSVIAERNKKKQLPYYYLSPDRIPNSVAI
In words: Biosynthesis of 5-LO products in HEK293 cells expressing 5-LO and FLAP (A23187 + arachidonic acid). Set-up: expressed in transfected cells; host or cells: HEK293. It counts as cell-based. Particulars: 1 μM compound, 10 μM A23187 + 10 μM arachidonic acid, 15 min. The protocol:
HEK293 cells expressing both 5-LO and the 5-lipoxygenase activating protein (FLAP) were generated as previously reported. For cell stimulation of 5-LO products, transfected HEK293 cells were collected following trypsinization and washed and the cell pellet was resuspended in Hank's balanced salt solution (HBSS, Lonza) containing 1.6 mM CaCl2 at a concentration of 5 × 10^5 cells/ml. Cells were preincubated with each compound at the indicated concentration for 5 min at 37°C. Cells were then stimulated for 15 minutes at 37°C with the addition of 10 μM calcium ionophore A23187 (Sigma-Aldrich) and 10 μM arachidonic acid (Cayman Chemical). Stimulations were stopped by adding 0.5 volume of cold MeOH:MeCN (1 : 1) containing 100 ng/ml of 19-OH prostaglandin B2 (PGB2) as internal standard. Samples were then processed and 5-LO products were analyzed by reversed-phase high-performance liquid chromatography (RP-HPLC) as described previously.
To evaluate CAPE analogues as potential inhibitors of the biosynthesis of 5-LO products, a first series of experiments was performed in HEK293 cells expressing both 5-LO and FLAP as previously described. HEK293 cells were first preincubated with the test compounds (1 μM), then stimulated in the presence of arachidonic acid and calcium ionophore A23187 to induce the biosynthesis of 5-LO products (Figure 2(a)). […] Based on these criteria, compounds 9, 13, 14, 15, 16, and 19 were selected for subsequent analyses.
Figure 2 Effect of the test compounds on the biosynthesis of 5-LO products in transfected HEK293 cells (a) and thapsigargin-stimulated PMNL (b). (a) HEK293 cells expressing both 5-LO and FLAP were incubated in presence of the indicated compounds (1 μM) or their diluent (control, 0.5% DMSO) for 5 min, then biosynthesis of 5-LO products was initiated with the addition of 10 μM calcium ionophore A23187 and 10 μM arachidonic acid for 15 min. After stimulation, reactions were stopped and samples were processed for analysis of 5-LO products by RP-HPLC. Total 5-LO products measured represent the sum of LTB4, its trans isomers, and 5-hydroxyeicosatetraenoic acid. (b) Freshly isolated human PMNL were incubated in presence of test compounds (or their diluent control, DMSO 0.5%) at the indicated concentrations for 5 min. Biosynthesis of the 5-LO products was initiated with the addition of 1 μM of thapsigargin, followed by a 15 min incubation period at 37°C. The stimulation was then stopped and samples were processed for RP-HPLC analysis and total 5-LO products quantification. Total 5-LO products measured represent the sum of LTB4, its trans isomers, 20-COOH- and 20-OH-LTB4 and 5-hydroxyeicosatetraenoic acid. Data are expressed as means ± SEM of at least 3 independent experiments. ^∗Different from control, as determined by one-way ANOVA with Dunnett's multiple comparison test (p < 0.05).

The target of assay [2] is T1, 5-LO. Set-up: endogenous in cells; host or cells: human polymorphonuclear leukocytes (PMNL) isolated from whole blood; method as in PMID 22347509. Particulars: cited from earlier work.
A further assay relates to arachidonic acid release. Particulars: cited from earlier work.

Regarding `COC(=O)/C=C/c1ccc(O)c(O)c1` [Compound 3], the “Inhibition of biosynthesis of 5-LO products in transfected HEK293 cells” value (“Inhibition … in transfected HEK293 cells” for short) on 5-LO [1] is “without inhibitory activity”.

As to `CCOC(=O)/C=C/c1ccc(O)c(O)c1` [Compound 4, ethyl caffeate], on 5-LO [1], the “Inhibition … in transfected HEK293 cells” value is “without inhibitory activity”.

`O=C(/C=C/c1ccc(O)c(O)c1)Oc1ccccc1` [Compound 10]: on 5-LO [1], the “Inhibition … in transfected HEK293 cells” value was “not as effective at inhibiting 5-LO as CAPE (2)”.

As to `O=C(/C=C/c1ccc(O)c(O)c1)OCc1ccccc1` [Compound 11], the “Inhibition … in transfected HEK293 cells” value on 5-LO [1] is listed as “not as effective at inhibiting 5-LO as CAPE (2)”.

For `CC(c1cc2ccccc2s1)N(O)C(N)=O` (stereo not shown) [Zileuton (1), zileuton, reference compound], the “Inhibition of biosynthesis of 5-LO products in whole blood (previous studies)” value on 5-LO [2] is “slightly better inhibitor of the biosynthesis of 5-LO products in whole blood than CAPE (2)”. Besides, the “Inhibition … in transfected HEK293 cells” value on 5-LO [1] is on record as “less effective than the selected compounds; also recorded: significantly inhibited the biosynthesis of 5-LO products”. Besides, the “Inhibition of liberation of cellular arachidonic acid (previously shown)” value with arachidonic acid release is on record as “previously shown to inhibit the liberation of cellular arachidonic acid”.
